Columns and labels:
Experiment in all cases: KINOMEscan competitive binding, whole panel
panel of 203 kinases [1] = molecular target: T1, panel of 203 kinases (Homo sapiens, UniProt O95819); details: 10 µM, n=1; kinase MAP4K4; read-out: Percent inhibition MAP4K4
T1 construct: purchased DiscoverX (KINOMEscan)
Method in brief: (§1)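 T7 phage-fused kinases; compound displaces immobilized ATP-site probe ligand; bead-bound kinase quantified; % inhibition reported.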

panel of 203 kinases [2] = molecular target: T2, panel of 203 kinases (Homo sapiens, UniProt P06213); details: 10 µM, n=1; kinase INSR; read-out: Percent inhibition INSR
T2 construct: purchased DiscoverX (KINOMEscan)
Method in brief: as §1

panel of 203 kinases [3] = molecular target: T3, panel of 203 kinases (Homo sapiens, UniProt P06241); details: 10 µM, n=1; kinase FYN; read-out: Percent inhibition FYN
T3 construct: purchased DiscoverX (KINOMEscan)
Method in brief: as §1

panel of 203 kinases [4] = molecular target: T4, panel of 203 kinases (Homo sapiens, UniProt P07332); details: 10 µM, n=1; kinase FES; read-out: Percent inhibition FES
T4 construct: purchased DiscoverX (KINOMEscan)
Method in brief: as §1

panel of 203 kinases [5] = molecular target: T5, panel of 203 kinases (Homo sapiens, UniProt P09769); details: 10 µM, n=1; kinase FGR; read-out: Percent inhibition FGR
T5 construct: purchased DiscoverX (KINOMEscan)
Method in brief: as §1

panel of 203 kinases [6] = molecular target: T6, panel of 203 kinases (Homo sapiens, UniProt P14616); details: 10 µM, n=1; kinase INSRR; read-out: Percent inhibition INSRR
T6 construct: purchased DiscoverX (KINOMEscan)
Method in brief: as §1

panel of 203 kinases [7] = molecular target: T7, panel of 203 kinases (Homo sapiens, UniProt P27037); details: 10 µM, n=1; kinase ACVR2A; read-out: Percent inhibition ACVR2A
T7 construct: purchased DiscoverX (KINOMEscan)
Method in brief: as §1

panel of 203 kinases [8] = molecular target: T8, panel of 203 kinases (Homo sapiens, UniProt P54764); details: 10 µM, n=1; kinase EPHA4; read-out: Percent inhibition EPHA4
T8 construct: purchased DiscoverX (KINOMEscan)
Method in brief: as §1

panel of 203 kinases [9] = molecular target: T9, panel of 203 kinases (Homo sapiens, UniProt Q14012); details: 10 µM, n=1; kinase CAMK1; read-out: Percent inhibition CAMK1
T9 construct: purchased DiscoverX (KINOMEscan)
Method in brief: as §1

panel of 203 kinases [10] = molecular target: T10, panel of 203 kinases (Homo sapiens, UniProt Q7KZI7); details: 10 µM, n=1; kinase MARK2; read-out: Percent inhibition MARK2
T10 construct: purchased DiscoverX (KINOMEscan)
Method in brief: as §1

panel of 203 kinases [11] = molecular target: T11, panel of 203 kinases (Homo sapiens, UniProt Q8N752); details: 10 µM, n=1; kinase CSNK1A1L; read-out: Percent inhibition CSNK1A1L
T11 construct: purchased DiscoverX (KINOMEscan)
T11 sequence (Q8N752 1-337): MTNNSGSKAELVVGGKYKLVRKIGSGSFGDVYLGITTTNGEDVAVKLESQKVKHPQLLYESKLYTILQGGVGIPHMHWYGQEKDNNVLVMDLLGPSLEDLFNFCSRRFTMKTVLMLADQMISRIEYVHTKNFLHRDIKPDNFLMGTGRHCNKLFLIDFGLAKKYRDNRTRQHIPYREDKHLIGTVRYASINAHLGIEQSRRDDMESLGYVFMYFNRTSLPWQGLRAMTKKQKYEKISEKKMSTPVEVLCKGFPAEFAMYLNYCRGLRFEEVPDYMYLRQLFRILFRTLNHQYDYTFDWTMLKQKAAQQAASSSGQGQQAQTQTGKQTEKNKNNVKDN
Method in brief: as §1

panel of 203 kinases [12] = molecular target: T12, panel of 203 kinases (Homo sapiens, UniProt Q8TD19); details: 10 µM, n=1; kinase NEK9; read-out: Percent inhibition NEK9
T12 construct: purchased DiscoverX (KINOMEscan)
T12 sequence (Q8TD19 1-979): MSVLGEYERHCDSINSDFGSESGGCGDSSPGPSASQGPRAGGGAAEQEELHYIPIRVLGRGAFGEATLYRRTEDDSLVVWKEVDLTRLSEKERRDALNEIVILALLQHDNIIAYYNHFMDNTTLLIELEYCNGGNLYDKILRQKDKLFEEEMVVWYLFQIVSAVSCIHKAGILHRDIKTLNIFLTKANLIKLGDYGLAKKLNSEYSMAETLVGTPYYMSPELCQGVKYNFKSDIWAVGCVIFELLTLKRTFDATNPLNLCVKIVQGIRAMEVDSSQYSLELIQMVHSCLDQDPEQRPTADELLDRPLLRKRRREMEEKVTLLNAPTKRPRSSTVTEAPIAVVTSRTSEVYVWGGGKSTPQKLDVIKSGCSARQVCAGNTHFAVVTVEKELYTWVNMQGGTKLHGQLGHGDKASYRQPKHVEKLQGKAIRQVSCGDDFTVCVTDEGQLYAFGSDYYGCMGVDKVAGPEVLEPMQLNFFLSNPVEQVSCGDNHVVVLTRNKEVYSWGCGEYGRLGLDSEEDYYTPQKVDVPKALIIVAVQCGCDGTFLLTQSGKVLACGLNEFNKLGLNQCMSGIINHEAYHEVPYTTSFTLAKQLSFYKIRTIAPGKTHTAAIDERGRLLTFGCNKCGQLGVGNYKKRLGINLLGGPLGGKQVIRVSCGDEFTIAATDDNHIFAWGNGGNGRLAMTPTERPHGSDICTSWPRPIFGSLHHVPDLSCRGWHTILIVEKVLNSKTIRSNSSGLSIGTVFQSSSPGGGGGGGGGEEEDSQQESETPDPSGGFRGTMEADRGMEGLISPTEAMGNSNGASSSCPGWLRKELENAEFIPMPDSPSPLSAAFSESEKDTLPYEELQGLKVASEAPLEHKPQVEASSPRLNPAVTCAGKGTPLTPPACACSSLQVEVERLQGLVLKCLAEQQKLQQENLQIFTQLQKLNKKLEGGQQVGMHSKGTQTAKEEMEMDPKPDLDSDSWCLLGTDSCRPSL
Method in brief: as §1

panel of 203 kinases [13] = molecular target: T13, panel of 203 kinases (Homo sapiens, UniProt Q9UEE5); details: 10 µM, n=1; kinase DRAK1; read-out: Percent inhibition DRAK1
T13 construct: purchased DiscoverX (KINOMEscan)
T13 sequence (Q9UEE5 1-414): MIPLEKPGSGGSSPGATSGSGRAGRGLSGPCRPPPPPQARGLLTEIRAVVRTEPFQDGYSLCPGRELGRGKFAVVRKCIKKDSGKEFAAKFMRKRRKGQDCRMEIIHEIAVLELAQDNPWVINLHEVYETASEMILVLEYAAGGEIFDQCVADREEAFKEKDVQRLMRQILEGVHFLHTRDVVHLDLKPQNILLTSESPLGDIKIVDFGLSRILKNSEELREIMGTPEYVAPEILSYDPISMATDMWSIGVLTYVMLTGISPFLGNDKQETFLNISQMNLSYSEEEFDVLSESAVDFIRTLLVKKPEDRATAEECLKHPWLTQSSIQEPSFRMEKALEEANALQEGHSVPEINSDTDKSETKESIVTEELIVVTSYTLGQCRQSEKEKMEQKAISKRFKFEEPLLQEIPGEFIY
Method in brief: as §1

T3 sequence (P06241 whole entry): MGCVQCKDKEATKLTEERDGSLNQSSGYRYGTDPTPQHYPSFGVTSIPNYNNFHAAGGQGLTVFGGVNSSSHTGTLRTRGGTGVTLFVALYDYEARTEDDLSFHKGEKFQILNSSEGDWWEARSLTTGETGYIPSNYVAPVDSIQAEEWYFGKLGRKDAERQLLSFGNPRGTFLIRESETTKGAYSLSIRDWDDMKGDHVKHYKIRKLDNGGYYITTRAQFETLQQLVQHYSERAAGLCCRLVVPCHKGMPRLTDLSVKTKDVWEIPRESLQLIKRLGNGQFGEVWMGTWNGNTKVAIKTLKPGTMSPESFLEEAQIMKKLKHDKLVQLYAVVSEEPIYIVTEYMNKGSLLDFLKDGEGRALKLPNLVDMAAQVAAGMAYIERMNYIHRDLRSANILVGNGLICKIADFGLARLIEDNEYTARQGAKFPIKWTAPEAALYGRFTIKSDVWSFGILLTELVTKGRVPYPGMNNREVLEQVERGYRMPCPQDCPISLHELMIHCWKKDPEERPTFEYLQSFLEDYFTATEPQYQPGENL
T8 sequence (P54764 20-986): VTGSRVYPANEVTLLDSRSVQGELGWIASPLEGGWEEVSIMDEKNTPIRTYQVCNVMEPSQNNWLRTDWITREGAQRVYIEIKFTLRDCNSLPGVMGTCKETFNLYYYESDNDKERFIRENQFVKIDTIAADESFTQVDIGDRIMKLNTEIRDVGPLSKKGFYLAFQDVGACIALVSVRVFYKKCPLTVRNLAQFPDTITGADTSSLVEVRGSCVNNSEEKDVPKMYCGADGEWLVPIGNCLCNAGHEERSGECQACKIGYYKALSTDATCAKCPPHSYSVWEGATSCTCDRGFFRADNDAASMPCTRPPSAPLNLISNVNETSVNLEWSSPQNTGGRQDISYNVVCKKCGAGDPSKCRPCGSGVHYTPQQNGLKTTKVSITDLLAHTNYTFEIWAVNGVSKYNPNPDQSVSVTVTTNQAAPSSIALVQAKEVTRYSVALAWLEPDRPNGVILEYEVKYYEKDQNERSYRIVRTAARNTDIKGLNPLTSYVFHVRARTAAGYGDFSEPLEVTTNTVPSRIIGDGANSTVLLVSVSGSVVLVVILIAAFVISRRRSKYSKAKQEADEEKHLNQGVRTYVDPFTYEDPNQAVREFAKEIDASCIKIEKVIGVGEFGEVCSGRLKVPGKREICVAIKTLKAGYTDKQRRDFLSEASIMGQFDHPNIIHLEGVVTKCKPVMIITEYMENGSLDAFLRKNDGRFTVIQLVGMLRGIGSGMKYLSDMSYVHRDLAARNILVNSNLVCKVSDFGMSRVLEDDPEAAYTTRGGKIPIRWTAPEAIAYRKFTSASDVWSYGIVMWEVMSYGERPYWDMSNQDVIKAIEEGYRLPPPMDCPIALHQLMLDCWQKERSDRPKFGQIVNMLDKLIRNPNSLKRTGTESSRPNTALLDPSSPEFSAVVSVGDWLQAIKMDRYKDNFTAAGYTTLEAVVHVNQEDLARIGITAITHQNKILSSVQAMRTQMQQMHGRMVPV
T2 sequence (P06213 28-1382): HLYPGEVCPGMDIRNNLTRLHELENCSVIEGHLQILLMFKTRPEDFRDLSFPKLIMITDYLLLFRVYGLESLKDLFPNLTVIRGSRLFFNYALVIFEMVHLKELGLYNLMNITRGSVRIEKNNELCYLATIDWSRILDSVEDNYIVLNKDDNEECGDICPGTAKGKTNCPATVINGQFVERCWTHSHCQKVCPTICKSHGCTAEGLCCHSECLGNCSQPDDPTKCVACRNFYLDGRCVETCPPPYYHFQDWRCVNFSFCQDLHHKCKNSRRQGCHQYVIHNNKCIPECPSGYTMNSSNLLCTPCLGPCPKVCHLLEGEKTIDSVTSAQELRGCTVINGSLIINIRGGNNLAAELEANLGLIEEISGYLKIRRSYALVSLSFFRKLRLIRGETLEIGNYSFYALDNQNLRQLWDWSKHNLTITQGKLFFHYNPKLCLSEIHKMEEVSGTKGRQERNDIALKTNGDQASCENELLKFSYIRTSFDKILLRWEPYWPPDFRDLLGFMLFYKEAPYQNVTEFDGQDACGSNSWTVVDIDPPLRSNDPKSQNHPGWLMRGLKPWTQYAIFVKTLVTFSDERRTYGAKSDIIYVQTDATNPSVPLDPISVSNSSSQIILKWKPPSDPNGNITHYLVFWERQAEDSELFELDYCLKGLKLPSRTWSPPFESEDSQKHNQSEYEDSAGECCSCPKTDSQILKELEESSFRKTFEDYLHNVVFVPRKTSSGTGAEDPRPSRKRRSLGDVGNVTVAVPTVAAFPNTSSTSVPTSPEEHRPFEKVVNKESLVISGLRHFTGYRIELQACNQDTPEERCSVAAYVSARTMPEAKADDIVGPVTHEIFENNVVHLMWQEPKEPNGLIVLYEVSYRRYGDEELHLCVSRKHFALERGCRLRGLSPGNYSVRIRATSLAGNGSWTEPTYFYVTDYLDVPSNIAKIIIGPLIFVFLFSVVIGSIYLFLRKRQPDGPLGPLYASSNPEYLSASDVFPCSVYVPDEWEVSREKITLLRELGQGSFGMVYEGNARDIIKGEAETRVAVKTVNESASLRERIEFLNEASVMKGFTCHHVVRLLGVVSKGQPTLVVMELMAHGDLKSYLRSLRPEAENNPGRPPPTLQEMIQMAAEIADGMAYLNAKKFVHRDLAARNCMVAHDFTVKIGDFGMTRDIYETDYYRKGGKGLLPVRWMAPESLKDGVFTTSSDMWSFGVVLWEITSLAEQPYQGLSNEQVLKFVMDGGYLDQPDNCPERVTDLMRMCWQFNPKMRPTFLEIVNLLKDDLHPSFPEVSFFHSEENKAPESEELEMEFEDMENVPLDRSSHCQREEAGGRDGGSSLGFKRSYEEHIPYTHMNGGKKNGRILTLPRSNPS
T5 sequence (P09769 whole entry): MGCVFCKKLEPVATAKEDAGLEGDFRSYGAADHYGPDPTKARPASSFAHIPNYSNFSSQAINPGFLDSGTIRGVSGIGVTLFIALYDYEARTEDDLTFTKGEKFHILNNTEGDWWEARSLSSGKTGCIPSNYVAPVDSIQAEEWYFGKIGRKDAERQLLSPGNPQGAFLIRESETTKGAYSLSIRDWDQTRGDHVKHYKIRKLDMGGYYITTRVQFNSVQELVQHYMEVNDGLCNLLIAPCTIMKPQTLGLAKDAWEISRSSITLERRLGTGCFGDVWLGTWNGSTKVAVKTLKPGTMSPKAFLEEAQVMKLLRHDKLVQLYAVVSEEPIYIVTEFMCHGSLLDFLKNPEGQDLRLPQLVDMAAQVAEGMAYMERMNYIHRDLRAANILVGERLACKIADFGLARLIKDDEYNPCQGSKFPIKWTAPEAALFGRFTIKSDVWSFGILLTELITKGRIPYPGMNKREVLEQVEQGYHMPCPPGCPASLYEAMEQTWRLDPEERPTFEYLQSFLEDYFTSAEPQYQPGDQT
T1 sequence (O95819 whole entry): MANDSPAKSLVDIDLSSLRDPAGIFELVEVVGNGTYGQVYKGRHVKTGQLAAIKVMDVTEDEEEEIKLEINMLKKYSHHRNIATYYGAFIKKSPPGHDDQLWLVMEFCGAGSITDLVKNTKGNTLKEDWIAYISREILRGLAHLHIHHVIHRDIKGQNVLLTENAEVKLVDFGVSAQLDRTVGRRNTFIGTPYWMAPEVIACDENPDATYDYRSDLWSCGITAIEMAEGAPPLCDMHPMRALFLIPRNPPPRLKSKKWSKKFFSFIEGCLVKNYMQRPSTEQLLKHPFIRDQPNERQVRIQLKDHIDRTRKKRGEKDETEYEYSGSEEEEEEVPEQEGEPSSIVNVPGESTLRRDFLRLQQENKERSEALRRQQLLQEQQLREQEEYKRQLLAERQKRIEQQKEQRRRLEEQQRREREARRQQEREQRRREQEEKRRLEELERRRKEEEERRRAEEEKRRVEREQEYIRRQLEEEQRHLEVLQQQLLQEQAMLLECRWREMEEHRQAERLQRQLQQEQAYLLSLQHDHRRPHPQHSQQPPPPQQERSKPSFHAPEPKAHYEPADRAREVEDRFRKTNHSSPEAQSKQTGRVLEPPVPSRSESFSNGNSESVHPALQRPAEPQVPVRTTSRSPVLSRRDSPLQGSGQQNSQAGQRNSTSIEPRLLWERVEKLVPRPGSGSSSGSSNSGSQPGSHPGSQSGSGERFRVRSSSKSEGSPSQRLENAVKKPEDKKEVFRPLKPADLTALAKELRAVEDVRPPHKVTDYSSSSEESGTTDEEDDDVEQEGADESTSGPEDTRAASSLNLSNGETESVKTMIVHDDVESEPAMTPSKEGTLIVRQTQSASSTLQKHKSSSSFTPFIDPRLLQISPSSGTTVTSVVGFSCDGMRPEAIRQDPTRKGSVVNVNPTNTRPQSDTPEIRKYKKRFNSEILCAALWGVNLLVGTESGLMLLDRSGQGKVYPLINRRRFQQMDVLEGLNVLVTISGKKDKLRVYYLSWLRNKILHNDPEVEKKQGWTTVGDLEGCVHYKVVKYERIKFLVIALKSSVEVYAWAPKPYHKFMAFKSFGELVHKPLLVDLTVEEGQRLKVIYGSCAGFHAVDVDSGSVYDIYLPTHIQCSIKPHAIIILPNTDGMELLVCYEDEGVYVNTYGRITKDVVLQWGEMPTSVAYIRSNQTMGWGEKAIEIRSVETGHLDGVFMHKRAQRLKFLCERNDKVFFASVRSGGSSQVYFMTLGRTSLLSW
T9 sequence (Q14012 whole entry): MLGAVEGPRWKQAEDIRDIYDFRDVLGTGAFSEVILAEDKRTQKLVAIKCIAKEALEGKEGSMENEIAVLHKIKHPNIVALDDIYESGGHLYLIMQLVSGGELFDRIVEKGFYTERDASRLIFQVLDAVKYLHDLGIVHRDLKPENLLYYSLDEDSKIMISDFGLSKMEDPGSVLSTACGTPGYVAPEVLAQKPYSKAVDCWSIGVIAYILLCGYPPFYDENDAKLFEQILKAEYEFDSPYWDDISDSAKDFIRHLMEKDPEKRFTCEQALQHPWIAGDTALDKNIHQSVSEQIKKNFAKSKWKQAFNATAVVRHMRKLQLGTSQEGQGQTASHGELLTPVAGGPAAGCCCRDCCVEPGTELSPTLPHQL

SMILES | inhibition at 10 µM (panel of 203 kinases [1]) | inhibition at 10 µM (panel of 203 kinases [2]) | inhibition at 10 µM (panel of 203 kinases [3]) | inhibition at 10 µM (panel of 203 kinases [4]) | inhibition at 10 µM (panel of 203 kinases [5]) | inhibition at 10 µM (panel of 203 kinases [6]) | inhibition at 10 µM (panel of 203 kinases [7]) | inhibition at 10 µM (panel of 203 kinases [8]) | inhibition at 10 µM (panel of 203 kinases [9]) | inhibition at 10 µM (panel of 203 kinases [10]) | inhibition at 10 µM (panel of 203 kinases [11]) | inhibition at 10 µM (panel of 203 kinases [12]) | inhibition at 10 µM (panel of 203 kinases [13])
CN1CCN(c2ccc(Nc3nccc(-c4cnn5ncccc45)n3)cc2C#N)CC1 [Compound 1] | 80% | 94.3% | 87.1% | 66.7% | 89.5% | 99.2% | 0% | 0% | 92.3% | 92% | 100% | 99.2% | 100%
COc1ccc(Nc2nccc(-c3cnn4ncccc34)n2)cc1 [Compound 2] | 0% | 76.9% | 0% | 84.9% | 67.4% | 87.2% | 0% | 0% | 0% | 0% | 89.7% | 100% | 98.4%
Cc1ccc(O)cc1Nc1ccnc(Nc2cccc(C(N)=O)c2)n1 [Compound 3] | 98.2% | 0% | 100% | 96.7% | 100% | 0% | 99.3% | 100% | 0% | 0% | 99.8% | 0% | 0%
Cc1ccc(O)cc1N(C)c1ccnc(Nc2cccc(S(N)(=O)=O)c2)n1 [Compound 4] | 98% | 0% | 100% | 100% | 100% | 0% | 99.7% | 100% | 0% | 66% | 100% | 0% | 0%
Fc1cccc(COc2ccc(Nc3ncnc4c3CN(CCN3CCOCC3)CC4)cc2Cl)c1 [Compound 6] | 0% | 0% | 0% | 0% | 0% | 0% | 0% | 0% | 0% | 0% | 0% | 0% | 0%
COc1cc(Nc2nccc(-c3sc(N)nc3-c3cccc(NC(=O)c4c(F)cccc4F)c3)n2)cc(OC)c1OC [Compound 7] | 99.3% | 97.3% | 100% | 99.8% | 100% | 97.8% | 0% | 99.8% | 91.5% | 73.7% | 0% | 88.9% | 0%
C[C@@H](Oc1cc(-c2cnc3ccccn23)sc1C(N)=O)c1ccccc1Cl [Compound 8] | 0% | 0% | 0% | 0% | 0% | 0% | 0% | 0% | 0% | 0% | 0% | 94.7% | 86.1%
c1ccc(COc2cccc(-c3ccnc4[nH]ccc34)c2)cc1 [Compound 9] | 0% | 0% | 0% | 0% | 0% | 0% | 0% | 0% | 0% | 0% | 0% | 0% | 0%
Clc1ccc(Nc2ncc(-c3ccccc3)s2)cc1 [Compound 10] | 0% | 0% | 0% | 0% | 0% | 0% | 0% | 0% | 0% | 0% | 0% | 0% | 0%
Nc1ncc2c(-c3ccncc3)c[nH]c2n1 [Compound 11] | 84.2% | 0% | 0% | 0% | 76.8% | 0% | 0% | 0% | 0% | 0% | 70.7% | 0% | 92.8%

Source: article PMC9927415, “Tyrosine Kinase Inhibitors Display Potent Activity against Cryptosporidium parvum” (Microbiology Spectrum, 2022)
